Entries after “also recorded” stand apart in the source; their conditions may differ.

This is an account of results in patent US9024071B2, “Therapeutic compounds” (University of Florida Research Foundation, Inc., priority 2009, dated 2015).

Test [1] concerns the target T1, 5HT2A (Homo sapiens, UniProt P28223). Nature of the test: Radioreceptor competition/saturation binding, 5HT2A ([3H]-ketanserin). Particulars: competitive binding; for nH: Hill slope; for Ki: wild type receptor transiently expressed (FIG. 1: HEK 293 cells). On the procedure: (§1) Cells are grown at 37° C. in a humidified incubator with 5% CO2. The cDNAs encoding the human 5-HT2A, 5-HT2B, and 5-HT2C receptors (wild type) are purchased from UMR (Rolla, Mo.) for transient transfection of the clonal cells. For radioreceptor binding assays, 5-HT2A, 5-HT2B, and 5-HT2C receptor membranes are prepared from transfected CHO-K1 cells. For functional assays measuring activity of PLC/IP formation, transfected CHO-K1 cells are used for 5-HT2A and 5-HT2C receptors. […] Twenty-four hours before transfection, cells are seeded at 40% confluence in 100 mm dishes for radioreceptor binding assays or at 10^5 cells per well in 12-well plates for functional assays. CHO-K1 cells are transiently transfected with 12 μg of plasmid and 32 μl of lipofectamine (Invitrogen) per 100 mm dish for radioreceptor binding assays, or, 0.8 μg plasmid and 4.0 μl of lipofectamine per well for functional assays. For 5-HT2B functional assays using HEK cells, 24 μg plasmid DNA is mixed with 60 μl of Lipofectamine 2000 (Invitrogen) to transfect 1-2×10^6 cells in a 10-cm plate. Cells are allowed to express transfected receptors for another 24 hrs (Herrick, 1997).
(§2) Radioreceptor saturation and competition binding assays are performed using membrane homogenates, similar to our methods reported previously for the phylogenetically closely related histamine H1 GPCR (Booth, 2002; Moniri et al., 2004). […] Briefly, forty-eight hours following CHO cell transfection, cells are harvested and homogenized in 50 mM Tris-HCl containing 0.1% ascorbic acid and 4.0 mM CaCl2 at pH 7.4 (assay buffer). The homogenate is centrifuged at 35,000 g for 25 min and the resulting membrane pellet is re-suspended in assay buffer. Protein concentration is determined by the method of Lowry et al. (Lowry, 1951). […] Incubation of radioreceptor binding assay mixtures is for 1.0 h at 37° C., with termination by rapid filtration through Whatman GF/B filters using a 96-well cell harvester (Tomtec, Hamden, Conn.). The membrane-bound [^3H]-radioligand retained on the filter discs is quantified by liquid scintillation spectrometry. Data are analyzed by nonlinear regression using the sigmoidal curve-fitting algorithms in Prism 4.03 (GraphPad Software Inc., San Diego, Calif.). Ligand affinity is expressed as an approximation of Ki values by conversion of the IC50 data to K0.5 values using the equation K0.5=IC50/1+L/KD, where L is the concentration of radioligand having affinity KD (Cheng, 1973).

Test [2] has as its target T2, 5HT2B (Homo sapiens, UniProt P41595). The test is described as follows: Radioreceptor competition/saturation binding, 5HT2B ([3H]-mesulergine). Particulars: competitive binding; for nH: Hill slope; for Ki: wild type receptor transiently expressed (FIG. 1: HEK 293 cells). The protocol:
as §1, §2

In test [3] the target is T3, 5HT2C (Homo sapiens, UniProt P28335).
T3 sequence (P28335 33-458): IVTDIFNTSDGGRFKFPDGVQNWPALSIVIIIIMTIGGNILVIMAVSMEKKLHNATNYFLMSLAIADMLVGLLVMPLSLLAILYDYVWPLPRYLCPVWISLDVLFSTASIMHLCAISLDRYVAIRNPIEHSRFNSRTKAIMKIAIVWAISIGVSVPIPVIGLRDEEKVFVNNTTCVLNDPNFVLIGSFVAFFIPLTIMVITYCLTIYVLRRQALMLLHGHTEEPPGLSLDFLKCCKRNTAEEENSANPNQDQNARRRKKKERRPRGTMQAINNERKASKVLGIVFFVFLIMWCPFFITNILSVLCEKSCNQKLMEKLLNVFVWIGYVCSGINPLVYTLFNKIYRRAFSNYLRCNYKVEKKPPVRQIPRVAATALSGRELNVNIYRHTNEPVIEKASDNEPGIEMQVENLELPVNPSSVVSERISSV
Nature of the test: Radioreceptor competition/saturation binding, 5HT2C ([3H]-mesulergine). Particulars: competitive binding; for nH: Hill slope; for Ki: wild type receptor transiently expressed (FIG. 1: HEK 293 cells). On the procedure:
as §1, §2

Test [4] addresses T4, Histamine H1 WT (Homo sapiens, UniProt P35367).
T4 construct: expressed in transfected cells
Nature of the test: Competitive binding, histamine H1 receptor. Particulars: Hill slope. The protocol:
as §2

The target of test [5] is T3, 5HT2C. Particulars: cited from earlier work.
The test system of test [6] is cocaine self-administration. Particulars: rat; cited from earlier work.
In test [7] the target is T1, 5HT2A. Nature of the test: PLC activity/[3H]-IP formation, 5HT2A. Type of test: cell-based. On the procedure:
(§3) Cells are grown at 37° C. in a humidified incubator with 5% CO2. The cDNAs encoding the human 5-HT2A, 5-HT2B, and 5-HT2C receptors (wild type) are purchased from UMR (Rolla, Mo.) for transient transfection of the clonal cells. For radioreceptor binding assays, 5-HT2A, 5-HT2B, and 5-HT2C receptor membranes are prepared from transfected CHO-K1 cells. For functional assays measuring activity of PLC/IP formation, transfected CHO-K1 cells are used for 5-HT2A and 5-HT2C receptors. For 5HT2B receptors, however, more robust and consistent results for the PLC/IP assay are obtained using transfected HEK cells (Setola et al., 2005). Twenty-four hours before transfection, cells are seeded at 40% confluence in 100 mm dishes for radioreceptor binding assays or at 10^5 cells per well in 12-well plates for functional assays. CHO-K1 cells are transiently transfected with 12 μg of plasmid and 32 μl of lipofectamine (Invitrogen) per 100 mm dish for radioreceptor binding assays, or, 0.8 μg plasmid and 4.0 μl of lipofectamine per well for functional assays. For 5-HT2B functional assays using HEK cells, 24 μg plasmid DNA is mixed with 60 μl of Lipofectamine 2000 (Invitrogen) to transfect 1-2×10^6 cells in a 10-cm plate. Cells are allowed to express transfected receptors for another 24 hrs (Herrick, 1997).
(§4) Functional activation of PLC is measured as [^3H]-IP formation in CHO cells transiently expressing serotonin 5-HT2C receptors or HEK cells transiently expressing serotonin 5-HT2A or 5-HT2B receptors, as previously reported (Moniri et al., 2004). Briefly, thirty-two hours following transfection, cells in inositol-free Dulbecco's modified Eagle's medium (DMEM) are incubated for twelve hours with 1.0 μCi/ml myo-[2-^3H]-inositol, the radiolabeled precursor of the PLC-β substrate phosphatidylinositol. […]
(§5) Functional activation of PLC is measured as [^3H]-IP formation in CHO cells transiently expressing 5-HT2A or 5-HT2C receptors and HEK cells transiently expressing 5HT2B receptors, as previously reported by our lab (Booth, 2002; Moniri et al., 2004). […]

Test [8] deals with T2, 5HT2B. The test is described as follows: PLC activity/[3H]-IP formation, 5HT2B. In kind it is cell-based. On the procedure:
as §1

For test [9], the target named is T3, 5HT2C. The test is described as follows: PLC activity/[3H]-IP formation, 5HT2C. In kind it is cell-based. The protocol:
as §3, §4, §5

The target of test [10] is Histamine H1 receptor (Homo sapiens, UniProt P35367). The test is described as follows: Histamine H1 receptor-mediated stimulation of PLC activity/[3H]-IP formation. Type of test: cell-based. Particulars: against histamine activation.
Sequence of Histamine H1 receptor (P35367 whole entry): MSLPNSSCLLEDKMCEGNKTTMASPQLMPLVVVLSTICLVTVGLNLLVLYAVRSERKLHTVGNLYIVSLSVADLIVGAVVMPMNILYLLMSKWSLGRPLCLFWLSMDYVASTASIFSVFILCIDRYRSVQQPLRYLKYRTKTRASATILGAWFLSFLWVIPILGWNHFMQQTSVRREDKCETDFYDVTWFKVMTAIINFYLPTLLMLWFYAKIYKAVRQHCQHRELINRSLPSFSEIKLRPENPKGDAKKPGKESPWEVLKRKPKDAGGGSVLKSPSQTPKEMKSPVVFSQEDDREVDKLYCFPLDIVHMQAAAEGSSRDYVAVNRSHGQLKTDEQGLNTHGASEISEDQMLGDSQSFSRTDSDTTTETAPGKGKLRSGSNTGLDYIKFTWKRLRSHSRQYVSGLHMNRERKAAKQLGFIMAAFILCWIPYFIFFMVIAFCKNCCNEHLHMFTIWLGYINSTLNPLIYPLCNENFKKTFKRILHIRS
In test [11] the target is RSK 1 (Homo sapiens, UniProt Q15418). Nature of the test: Kinase affinity panel (labeled tag binding), RSK 1. Particulars: at 1.0 uM CAT.
Sequence of RSK 1 (Q15418 whole entry): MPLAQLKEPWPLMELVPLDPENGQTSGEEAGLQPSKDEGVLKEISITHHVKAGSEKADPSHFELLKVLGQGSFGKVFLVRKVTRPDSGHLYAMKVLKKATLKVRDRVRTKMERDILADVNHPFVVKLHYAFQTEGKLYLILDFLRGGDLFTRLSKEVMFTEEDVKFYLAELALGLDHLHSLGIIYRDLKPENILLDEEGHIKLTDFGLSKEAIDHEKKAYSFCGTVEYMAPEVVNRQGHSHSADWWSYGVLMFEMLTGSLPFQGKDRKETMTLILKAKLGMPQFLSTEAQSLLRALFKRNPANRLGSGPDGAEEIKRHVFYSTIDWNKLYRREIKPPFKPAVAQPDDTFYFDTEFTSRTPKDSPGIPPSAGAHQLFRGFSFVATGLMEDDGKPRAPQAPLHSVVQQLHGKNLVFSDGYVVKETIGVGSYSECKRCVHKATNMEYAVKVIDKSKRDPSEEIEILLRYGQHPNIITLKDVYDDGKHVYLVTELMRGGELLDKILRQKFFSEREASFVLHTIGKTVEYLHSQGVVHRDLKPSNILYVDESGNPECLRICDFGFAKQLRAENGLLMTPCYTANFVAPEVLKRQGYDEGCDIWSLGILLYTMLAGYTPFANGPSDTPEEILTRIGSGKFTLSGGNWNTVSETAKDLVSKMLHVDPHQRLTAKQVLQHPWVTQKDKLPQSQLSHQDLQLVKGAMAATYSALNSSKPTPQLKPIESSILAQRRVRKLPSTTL
For test [12], the target named is RSK 2 (Homo sapiens, UniProt P51812). Nature of the test: Kinase affinity panel (labeled tag binding), RSK 2. Particulars: at concentrations up to 1.0 uM.
Sequence of RSK 2 (P51812 whole entry): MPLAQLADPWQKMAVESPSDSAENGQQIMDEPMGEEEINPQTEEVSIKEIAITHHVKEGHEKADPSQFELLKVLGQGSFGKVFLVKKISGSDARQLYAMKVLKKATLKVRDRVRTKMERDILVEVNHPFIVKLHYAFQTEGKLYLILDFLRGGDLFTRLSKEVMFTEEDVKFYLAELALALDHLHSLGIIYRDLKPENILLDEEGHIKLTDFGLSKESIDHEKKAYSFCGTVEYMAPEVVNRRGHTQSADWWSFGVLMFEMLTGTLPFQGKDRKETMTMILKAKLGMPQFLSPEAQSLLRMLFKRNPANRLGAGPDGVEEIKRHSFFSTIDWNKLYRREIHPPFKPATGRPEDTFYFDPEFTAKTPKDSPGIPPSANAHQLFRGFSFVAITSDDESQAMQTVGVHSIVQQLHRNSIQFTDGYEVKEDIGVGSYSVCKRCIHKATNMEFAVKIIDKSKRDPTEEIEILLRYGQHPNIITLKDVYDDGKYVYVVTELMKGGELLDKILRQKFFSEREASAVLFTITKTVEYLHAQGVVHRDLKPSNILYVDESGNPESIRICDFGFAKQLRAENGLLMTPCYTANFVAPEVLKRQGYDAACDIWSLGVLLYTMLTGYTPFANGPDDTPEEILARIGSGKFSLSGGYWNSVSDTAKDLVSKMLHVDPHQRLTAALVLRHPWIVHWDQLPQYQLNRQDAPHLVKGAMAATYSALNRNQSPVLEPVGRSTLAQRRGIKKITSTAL
For test [13], the target named is RSK 3 (Homo sapiens, UniProt Q15349). The test is described as follows: Kinase affinity panel (labeled tag binding), RSK 3. Particulars: at 1.0 uM CAT.
Sequence of RSK 3 (Q15349 whole entry): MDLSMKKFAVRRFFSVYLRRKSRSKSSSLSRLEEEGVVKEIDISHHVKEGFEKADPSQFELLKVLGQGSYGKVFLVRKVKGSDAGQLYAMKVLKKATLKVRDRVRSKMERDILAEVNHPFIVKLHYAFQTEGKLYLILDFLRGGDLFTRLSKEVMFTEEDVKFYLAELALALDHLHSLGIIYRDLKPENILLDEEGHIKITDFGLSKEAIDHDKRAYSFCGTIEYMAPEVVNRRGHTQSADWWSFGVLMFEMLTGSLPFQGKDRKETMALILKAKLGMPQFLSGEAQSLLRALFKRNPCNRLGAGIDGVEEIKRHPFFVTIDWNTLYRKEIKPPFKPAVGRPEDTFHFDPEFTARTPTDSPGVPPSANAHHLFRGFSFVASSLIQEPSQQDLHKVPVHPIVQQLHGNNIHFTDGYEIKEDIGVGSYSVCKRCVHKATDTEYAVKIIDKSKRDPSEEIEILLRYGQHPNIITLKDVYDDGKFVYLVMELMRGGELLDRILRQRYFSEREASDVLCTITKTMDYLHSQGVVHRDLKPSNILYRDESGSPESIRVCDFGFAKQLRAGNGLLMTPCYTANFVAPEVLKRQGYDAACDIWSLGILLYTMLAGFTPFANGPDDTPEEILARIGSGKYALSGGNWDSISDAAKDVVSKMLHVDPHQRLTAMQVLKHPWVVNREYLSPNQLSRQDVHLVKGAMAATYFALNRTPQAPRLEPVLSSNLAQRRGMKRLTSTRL
Test [14] has as its target RSK 4 (Homo sapiens, UniProt Q9UK32). Nature of the test: Kinase affinity panel (labeled tag binding), RSK 4. Particulars: at 1.0 uM CAT.
Test [15] concerns 438 other kinases. The test is described as follows: Kinase affinity panel (labeled tag binding), other kinases. Particulars: at concentrations up to 1.0 uM.
The mark [16] stands for this setting: inhibition of basal (constitutive) [3H]-IP formation.

T2 sequence (P41595 whole entry): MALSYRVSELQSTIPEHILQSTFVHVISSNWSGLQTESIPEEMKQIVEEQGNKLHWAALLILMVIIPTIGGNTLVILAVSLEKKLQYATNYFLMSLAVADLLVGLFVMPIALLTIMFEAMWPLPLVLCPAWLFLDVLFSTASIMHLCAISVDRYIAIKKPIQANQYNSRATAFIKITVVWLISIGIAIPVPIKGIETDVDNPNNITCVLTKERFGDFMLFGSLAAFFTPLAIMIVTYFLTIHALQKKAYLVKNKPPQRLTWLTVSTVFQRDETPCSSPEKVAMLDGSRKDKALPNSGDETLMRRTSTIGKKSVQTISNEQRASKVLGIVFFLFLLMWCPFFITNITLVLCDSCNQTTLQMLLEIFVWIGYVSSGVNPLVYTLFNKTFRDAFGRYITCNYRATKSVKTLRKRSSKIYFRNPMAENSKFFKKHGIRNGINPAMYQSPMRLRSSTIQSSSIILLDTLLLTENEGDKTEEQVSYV
T1 sequence (P28223 whole entry): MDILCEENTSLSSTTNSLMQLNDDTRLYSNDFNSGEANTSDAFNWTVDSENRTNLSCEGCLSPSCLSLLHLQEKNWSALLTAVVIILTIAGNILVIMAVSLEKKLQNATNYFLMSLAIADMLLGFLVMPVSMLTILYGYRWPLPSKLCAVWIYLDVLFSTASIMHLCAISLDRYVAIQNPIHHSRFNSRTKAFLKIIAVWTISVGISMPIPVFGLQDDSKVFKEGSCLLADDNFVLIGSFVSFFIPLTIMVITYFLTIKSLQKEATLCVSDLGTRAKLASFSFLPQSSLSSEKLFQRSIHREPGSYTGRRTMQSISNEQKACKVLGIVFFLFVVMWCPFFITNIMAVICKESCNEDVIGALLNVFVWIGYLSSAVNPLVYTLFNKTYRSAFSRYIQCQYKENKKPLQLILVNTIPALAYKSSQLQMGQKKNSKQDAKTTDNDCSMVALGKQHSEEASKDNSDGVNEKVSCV
T4 sequence (P35367 whole entry): as the sequence (P35367 whole entry) above
Sequence of RSK 4 (Q9UK32 whole entry): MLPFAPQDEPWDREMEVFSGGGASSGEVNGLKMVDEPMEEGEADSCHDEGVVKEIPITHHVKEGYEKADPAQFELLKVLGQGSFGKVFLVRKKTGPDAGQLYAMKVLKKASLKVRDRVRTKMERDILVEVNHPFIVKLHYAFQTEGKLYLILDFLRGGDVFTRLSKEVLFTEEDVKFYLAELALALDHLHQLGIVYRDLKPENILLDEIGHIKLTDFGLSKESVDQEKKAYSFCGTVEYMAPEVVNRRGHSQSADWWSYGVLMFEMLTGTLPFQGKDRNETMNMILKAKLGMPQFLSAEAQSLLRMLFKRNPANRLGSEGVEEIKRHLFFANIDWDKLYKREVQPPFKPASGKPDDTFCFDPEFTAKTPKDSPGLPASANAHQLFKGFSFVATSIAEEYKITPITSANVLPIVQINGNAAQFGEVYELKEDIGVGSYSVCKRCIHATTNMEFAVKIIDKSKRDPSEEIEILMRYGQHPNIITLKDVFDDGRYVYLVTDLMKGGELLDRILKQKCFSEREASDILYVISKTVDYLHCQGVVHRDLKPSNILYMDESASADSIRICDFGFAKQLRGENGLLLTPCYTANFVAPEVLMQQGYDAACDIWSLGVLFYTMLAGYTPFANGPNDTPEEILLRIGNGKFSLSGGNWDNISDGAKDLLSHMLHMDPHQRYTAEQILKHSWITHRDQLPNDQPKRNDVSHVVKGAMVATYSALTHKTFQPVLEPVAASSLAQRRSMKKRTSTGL

Broadly, the Ki is a dissociation constant, usually derived from enzyme kinetics or from competition with a known ligand. For the compound `CN(C)[C@H]1Cc2ccccc2[C@H](C2CCCCC2)C1` [(+)-trans-CAT, (+)-(2R,4S)-4-cyclohexyl-N,Ndimethyl-1,2,3,4-tetrahydronaphthalen-2-amine], the nH in [1] is listed as 0.77 ± 0.20; in test [2] it was 0.75 ± 0.12; in test [3] it was 1.20 ± 0.26; in test [4] it was 1.02 ± 0.00. The Ki came to 0.0782 ± 0.004 µM in test [1], 1.01 ± 0.14 µM in test [2] and 0.029 ± 0.0044 µM in test [3].
For `C[C@H]1CNCCc2ccc(Cl)cc21` [lorcaserin, Lorcaserin], the “selectivity for activation of 5HT2C receptors over 5HT2A receptors” value in test [5] is given as 15 fold.
`COc1cccc([C@H](O)C2CCN(CCc3ccc(F)cc3)CC2)c1OC` [M100907]: the “rate of cocaine self-administration” value in [6] was “does not alter responding rate”.
For `Cc1cc2c(cc1Cl)N(C(=O)Nc1ccc(Oc3cccnc3C)nc1)CC2` [SB242084], in [6], the “rate of cocaine self-administration” value is “increases the rate of cocaine self-administration dose-dependently”.
As a reminder, the IC50 is the midpoint of a concentration-inhibition curve. A low value points to higher potency. As for `CN(C)[C@@H]1Cc2ccccc2[C@@H](C2CCCCC2)C1` [(−)-trans-CAT, (−)-(2S,4R)-4-cyclohexyl-N,N-dimethyl-1,2,3,4-tetrahydronaphthalen-2-amine], the nH is 1.26 ± 0.01 in [1], 0.81 ± 0.02 in [2], 1.13 ± 0.18 in test [3] and 1.01 ± 0.05 in [4]. In addition, the Ki in test [1] worked out at 0.00161 ± 5e-05 µM; in [2], 0.0237 ± 0.00079 µM; in [3] it was 0.0137 ± 0.00217 µM. Besides, the “Kind of functional activity, PLC activity/IP formation” value in test [7], in test [8] and in test [9] was “inverse agonist” in each case. For the same compound, the figures for the “PLC/IP formation IMAX” value in test [7], in [8] and in test [9] were 48.45 ± 5.50 % Basal, 56.80 ± 2.13 % Basal and 60.65 ± 2.94 % Basal, respectively. Moreover, the IC50 in test [7] (setting [16]) came to 0.13 ± 0.02 µM; in [8] (setting [16]), 0.25 ± 0.03 µM; in test [9] (setting [16]), 0.19 ± 0.04 µM. For the same compound, the “PLC/IP formation, kind of activity at H1” value in test [10] is listed as “competitively antagonized; also recorded: Competitive”. In addition, the “inhibition of tag binding” value in test [11] worked out at 20%. Moreover, the “binding to RSK 2” value in test [12] is recorded as “did not exhibit similarly significant binding”. For the same compound, the “inhibition of labeled tag binding” value in test [13] and in [14] was 80% each time. Also, in test [15], the “binding to 438 other kinases” value is recorded as “did not exhibit as significant binding”.
